The text below walks through data of US12391751B2, “Antibody against advanced glycation end products and use thereof” (Bloom Technology Corporation, priority 2018, dated 2025).

In test [1] the test system is POD-labeled novel monoclonal antibody (SJ-5). Kind of test: Competitive ELISA of GAL691 and Lys-hydroxy-triosidine against SJ-5 (Example 18). It is filed as binding, mouse. The note with it: immobilized Glycer-AGEs-BSA; competitor 0.625 to 10 mg/mL. How it is done: A solution of BSA containing AGEs derived from glyceraldehyde (stock solution: 10 mg/mL PBS solution) prepared into 1 μg/mL in a coating solution was added at 100 μL/well to a 96-well microtiter plate (COSTAR) and incubated overnight at 4° C.
(§1) Each well after the immobilization treatment was washed three times with a washing solution (300 μL), and a blocking solution (200 μL) was added thereto and left at room temperature for 1 hour.
GAL691 (prepared in Example 16) and Lys-hydroxy-triosidine (prepared in Example 17) were each dissolved in a phosphate buffer solution (0.2 M, pH 7.4) to prepare a 10 mg/mL solution. Sample solutions of 2-fold dilution series from 0.625 to 10 mg/ml (5 points) were further prepared by dilution with a diluting solution. Dilution solutions were also prepared from a blank solution containing no sample in the same way as above. […]
Absorbance was measured at a dominant wavelength of 450 nm and a sub-wavelength of 650 nm with a microplate reader (Cytation 5, BioTek Instrument Inc.), and the absorbance at the sub-wavelength was subtracted from the absorbance at the dominant wavelength. Change in the absorbance of GAL691 and Lys-hydroxy-triosidine was indicated as relative values to the absorbance of the blank solution.
Background: In an ELISA, binding on a coated surface is turned into a signal by an enzyme label.

A further test has as its system PB-1 antibody. Kind of test: Competitive ELISA of GAL691 and known AGEs against PB-1 (Example 31). The class given is binding, mouse. As to conditions: immobilized A-peak-BSA; competitor 0.04 to 2.5 mM; PB-1 0.1 μg/mL. On the procedure: Competitive ELISA was conducted using the reagents described in Example 13. A solution of A-peak-BSA prepared into 1 μg/mL in a coating solution was added at 100 μL/well to a 96-well microtiter plate (Costar) and incubated overnight at 4° C.
as §1
GAL691 (prepared in Example 16), GLAP (prepared in Example 12), Lys-hydroxy-triosidine (prepared in Example 17), GA-pyridine (prepared in Example 28), GOLD (prepared in Example 29), and Z-Lys were each dissolved in a phosphate buffer solution (0.2 M, pH 7.4) to prepare a 100 mM solution. Then, a 10 mM solution was prepared by dilution 10-fold with a diluting solution containing BSA (1 mg/mL, FUJIFILM Wako Pure Chemical Corp.). Sample solutions of 4-fold dilution series of 0.04, 0.16, 0.63, and 2.5 mM were further prepared with a diluting solution containing a 10% (v/v) phosphate buffer solution and 1 mg/mL BSA. Ten-fold dilutions of a phosphate buffer solution with a diluting solution containing 1 mg/mL BSA were prepared as blank solutions containing no sample in the same way as above. A 0.1 μg/mL solution of the PB-1 antibody was prepared with a diluting solution containing 1 mg/mL BSA.
Each well treated with the blocking solution was washed three times with a washing solution (300 μL), and the sample solutions of 4-fold dilution series (50 μL each) and the PB-1 antibody dilution solution (50 μL) were added thereto, stirred with a plate mixer for 2 minutes, and then incubated at room temperature for 1 hour.
After the competitive reaction, each well was washed three times with a washing solution (300 μL), and peroxidase-labeled anti-mouse IgG (H+L) polyclonal antibody, F(ab′)2 fragment (Kirkegaard & Perry Laboratories, Inc.) diluted into 0.05 μg/mL with a diluting solution containing 1 mg/mL BSA was added at 100 μL/well and left standing at room temperature for 1 hour.
After washing three times with a washing solution (300 μL), a substrate solution (ELISA POD substrate TMB kit (Popular), Nacalai Tesque, Inc.) was added at 100 μL/well and incubated at room temperature for 10 minutes under light shielding. Then, color development was terminated by the addition of 2 N sulfuric acid (50 μL).
Absorbance was measured at a dominant wavelength of 450 nm and a sub-wavelength of 650 nm with a microplate reader (Cytation 5, BioTek Instrument Inc.), and the absorbance at the sub-wavelength was subtracted from the absorbance at the dominant wavelength. Change in the absorbance of GAL691, GLAP, Lys-hydroxy-triosidine, GA-pyridine, GOLD, and Z-Lys was indicated as relative values to the absorbance of the blank solution.

A short description of test [2]: Formation of singlet oxygen through photosensitizing effect, ESR with 4-OH-TEMP (Examples 21, 22). As to conditions: astaxanthin final concentration 2.5 mM; blue light. How it is done: 25 μL of GAL691 or Z-Lys(Z)-OH (10 mM, PBS solution), 12.5 μL of 4-hydroxy-2,2,6,6-tetramethylpiperidine (4-OH-TEMP; Tokyo Chemical Industry Co., Ltd., 400 mM, PBS solution), and 12.5 μL of PBS were mixed in a 0.6 mL microtube (Watson) to prepare a reaction solution. 4-OH-TEMP changes into a nitroxide radical by capturing singlet oxygen and is therefore often utilized in the detection of singlet oxygen using ESR (Nakamura et al., J. Clin. Biochem. Nutr., 2011, 49 (2), 87-95). The reaction solution was irradiated with light at UV 365 nm, blue 470 nm, green 530 nm, or red 630 nm for 1 hour using a portable LED light source (MeCan Imaging Inc.). Then, ESR measurement was performed using a portion (50 μL) of each reaction solution. The ESR measurement was carried out under the same conditions as in Example 10 except for some parameters. The changed measurement parameters are as follows: […]
In order to quantify the concentration of the formed nitroxide radical, the following analysis was conducted: the spectrum of the observed nitroxide radical was first simulated with SpinFit module in Xepr software (Bruker Corp.) to identify a radical species (g=2.0058, I=1, AN=17.05 G). Then, the spin concentration (μM) of the simulated nitroxide radical was determined with SpinCount module. […]

With `CC(=O)NC(CCCCNCc1cc(O)c[n+](CCCCC(NC(C)=O)C(=O)O)c1)C(=O)O` (stereo not drawn) [Lys-hydroxy-triosidine], in test [1], the “change in absorbance relative to blank (competition for SJ-5 binding)” value is reported as “no reduction in absorbance was observed”. In addition, the “change in absorbance relative to blank (competition for PB-1 binding)” value with PB-1 antibody is “no reduction in absorbance was observed”.
Take `CC1=C(/C=C/C(C)=C/C=C/C(C)=C/C=C/C=C(C)/C=C/C=C(C)/C=C/C2=C(C)C(=O)[C@@H](O)CC2(C)C)C(C)(C)C[C@H](O)C1=O` [astaxanthin]: in test [2], the “capture of singlet oxygen generated by GAL691 and light irradiation” value was “captured”.
